# Assay results: patent publication US20130053430A1, “MODULATION OF CETP EXPRESSION” (Isis Pharmaceuticals, Inc., priority 2010, published 2013)
# e = 2'-O-(2-methoxyethyl) (MOE); d = 2'-deoxy (DNA)
# How the values were obtained:
# [1] = Body and organ weights of huCETP transgenic mice (Example 5); type: in vivo; conditions: 50 mg/kg i.p. twice per week
# Procedure: The mice were divided into five treatment groups. The first four groups received intraperitoneal injections of ISIS 349511, ISIS 349512, ISIS 349515, or ISIS 349517 at a dose of 50 mg/kg twice per week for 6 weeks. The fifth group received intraperitoneal injections of saline twice weekly for 6 weeks.
# The body weights of the mice were measured pre-dose and regularly during the treatment period. The body weights are presented in Table 10, and are expressed in grams.
# human CETP mRNA = assay: Dose-dependent antisense inhibition of human CETP in SW872 liposarcoma cells (Example 2); type: cell-based; conditions: Lipofectin, ~16 hours (Example 2)
# Procedure: Cells were plated at a density of 50,000 cells per well in a 24-well plate and transfected using Lipofectin reagent with 50 nM, 150 nM, and 300 nM concentrations of each antisense oligonucleotide. After approximately 16 hours, RNA was isolated from the cells and CETP mRNA levels were measured by quantitative real-time PCR. CETP mRNA levels were normalized to total RNA content, as measured by the house-keeping gene, GAPDH mRNA levels. Results are presented in Table 4 as percent inhibition of CETP, relative to untreated control cells.
# CETP activity [2] = assay: CETP activity assay kit (Example 8); type: in vivo, human; conditions: huCETP transgenic mice, Western diet; 25 mg/kg s.c. twice per week for 2 weeks; relative to PBS control
# Procedure: (§1) The mice were divided into two groups of 4-6 mice each.
# CETP activity levels were measured using a CETP activity assay kit (Roar Biomedical Inc., New York, N.Y.). […] The results are expressed as percent inhibition of CETP activity, relative to the PBS control.
# [3] = Plasma cholesterol and triglyceride levels (Example 8); type: in vivo; conditions: huCETP transgenic mice, Western diet
# Procedure: as §1
# (§2) Plasma cholesterol were extracted at week 6 by the method of Bligh and Dyer (Bligh, E. G. and Dyer, W. J. Can. J. Biochem. Physiol. 37: 911-917, 1959) and measured with an Olympus clinical analyzer (Hitachi Olympus AU400e, Melville, N.Y.). HDL and LDL cholesterol were individually measured by HPLC. Triglyceride levels were measured with the use of a commercially available triglyceride kit (DCL Triglyceride Reagent; Diagnostic Chemicals Ltd., Charlottetown, Canada). The results are presented in Table 41 and are expressed in mg/dL.
# [4] = Plasma cholesterol and triglyceride levels, dose response (Example 9); type: in vivo, mice
# Procedure: (§3) Another group received subcutaneous injections of control oligonucleotide ISIS 141923 at a dose of 50 mg/kg/week for 6 weeks. One group of mice received subcutaneous injections of PBS for 6 weeks. The PBS-injected group served as the control group to which treatment groups were compared.
# as §2, with “G.” for “Plasma cholesterol were extracted at week 6 by the method of Bligh and Dyer (Bligh, E. G.”, “Ltd.).” for “Ltd., Charlottetown, Canada).”, “Tables 47-51” for “Table 41”
# CETP activity [5] = assay: CETP activity assay kit, dose response (Example 9); type: in vivo, human; conditions: huCETP transgenic mice, Western diet, s.c. 6 weeks
# Procedure: as §3
# CETP activity levels were measured using a CETP activity assay kit (Roar Biomedical Inc.).
# CETP mRNA = assay: Liver CETP mRNA in huCETP transgenic mice on Western diet (Example 8); type: in vivo, human; conditions: 25 mg/kg s.c. twice per week for 2 weeks, relative to PBS control
# Procedure: Male transgenic mice were maintained on a 12-hour light/dark cycle and were fed ad libitum the Western diet (TD88137; 42% cal from fat, 0.2% cholesterol; Harlan Laboratories, Indianapolis, Ind.). Animals were acclimated for at least 7 days in the research facility before initiation of the experiment and were maintained on this diet throughout the study period. Antisense oligonucleotides (ASOs) were prepared in phosphate buffered saline (PBS) and sterilized by filtering through a 0.2 micron filter. Oligonucleotides were dissolved in 0.9% PBS for injection.
# as §1
# Twenty four hours after the final dose, the animals were sacrificed and liver tissue was isolated.
# Liver RNA was isolated for real-time PCR analysis of CETP. The primer probe set hCETP was used to measure CETP levels. […] The RNA expression levels were normalized to murine Cyclophilin. The results are expressed as percent inhibition of CETP mRNA, relative to the PBS control.
# CETP protein = assay: Plasma CETP protein by ELISA (Example 8); type: in vivo, human; conditions: huCETP transgenic mice, Western diet; 25 mg/kg s.c. twice per week for 2 weeks; relative to PBS control
# Procedure: as §1
# Plasma CETP protein levels were measured by ELISA (Alpco). […] The results are expressed as percent inhibition of CETP protein, relative to the PBS control.
# [6] = 25 mg/kg s.c. twice per week for 2 weeks
substance,measurement,setting,value
"ISIS 349511: 5-10-5 MOE gapmer CCCGACCTCCTTGGAGACTT (sugars from the 5' end e5 d10 e5, backbone and methylation of C not given here)",Body weights,[1]; Week 0,19 grams
same,Body weights,[1]; Week 1,21 grams
same,Body weights,[1]; Week 2,23 grams
same,Body weights,[1]; Week 4,25 grams
same,Body weights,[1]; week 6,26 grams
same,"Organ weights, Kidney",[1]; week 6,312.5 mg
same,"Organ weights, Liver",[1]; week 6,1.3 g
same,"Organ weights, Spleen",[1]; week 6,76.0 mg
"ISIS 349517: 5-10-5 MOE gapmer CAGCACTTTAATGCCAGTGG (sugars from the 5' end e5 d10 e5, backbone and methylation of C not given here)",percent inhibition of CETP,human CETP mRNA; 50 nM,100%
same,percent inhibition of CETP,human CETP mRNA; 150 nM,98%
same,percent inhibition of CETP,human CETP mRNA; 300 nM,98%
same,Body weights,[1]; Week 0,25 grams
same,Body weights,[1]; Week 1,27 grams
same,Body weights,[1]; Week 2,28 grams
same,Body weights,[1]; Week 4,28 grams
same,Body weights,[1]; week 6,29 grams
same,"Organ weights, Kidney",[1]; week 6,355.5 mg
same,"Organ weights, Liver",[1]; week 6,1.7 g
same,"Organ weights, Spleen",[1]; week 6,89.0 mg
same,Percent inhibition of CETP activity,CETP activity [2],73%
same,HDL % at week 0,[3]; [6],39%
same,HDL cholesterol,[3]; [6],155 mg/dL
same,LDL Cholesterol,[3]; [6],48 mg/dL
same,Total cholesterol,[3]; [6],212 mg/dL
same,Triglycerides,[3]; [6],58 mg/dL
same,increase in HDL levels compared to the PBS control,"[3]; 25 mg/kg s.c. twice per week, on week 3",30%
same,HDL cholesterol levels,"[4]; 1.5 mg/kg/wk, Week 0",80 mg/dL
same,LDL cholesterol levels,"[4]; 1.5 mg/kg/wk, Week 0",58 mg/dL
same,Total cholesterol levels,"[4]; 1.5 mg/kg/wk, Week 0",154 mg/dL
same,Triglyceride levels,"[4]; 1.5 mg/kg/wk, Week 0",63 mg/dL
same,% change in HDL levels compared to total cholesterol,"[4]; 1.5 mg/kg/wk, Week 3",12%
same,HDL cholesterol levels,"[4]; 1.5 mg/kg/wk, Week 3",117 mg/dL
same,LDL cholesterol levels,"[4]; 1.5 mg/kg/wk, Week 3",35 mg/dL
same,Total cholesterol levels,"[4]; 1.5 mg/kg/wk, Week 3",171 mg/dL
same,Triglyceride levels,"[4]; 1.5 mg/kg/wk, Week 3",50 mg/dL
same,% change in HDL levels compared to total cholesterol,"[4]; 1.5 mg/kg/wk, Week 6",24%
same,HDL cholesterol levels,"[4]; 1.5 mg/kg/wk, Week 6",132 mg/dL
same,LDL cholesterol levels,"[4]; 1.5 mg/kg/wk, Week 6",38 mg/dL
same,Total cholesterol levels,"[4]; 1.5 mg/kg/wk, Week 6",180 mg/dL
same,Triglyceride levels,"[4]; 1.5 mg/kg/wk, Week 6",91 mg/dL
same,HDL cholesterol levels,"[4]; 5 mg/kg/wk, Week 0",88 mg/dL
same,LDL cholesterol levels,"[4]; 5 mg/kg/wk, Week 0",62 mg/dL
same,Total cholesterol levels,"[4]; 5 mg/kg/wk, Week 0",164 mg/dL
same,Triglyceride levels,"[4]; 5 mg/kg/wk, Week 0",57 mg/dL
same,% change in HDL levels compared to total cholesterol,"[4]; 5 mg/kg/wk, Week 3",11%
same,HDL cholesterol levels,"[4]; 5 mg/kg/wk, Week 3",130 mg/dL
same,LDL cholesterol levels,"[4]; 5 mg/kg/wk, Week 3",31 mg/dL
same,Total cholesterol levels,"[4]; 5 mg/kg/wk, Week 3",172 mg/dL
same,Triglyceride levels,"[4]; 5 mg/kg/wk, Week 3",51 mg/dL
same,% change in HDL levels compared to total cholesterol,"[4]; 5 mg/kg/wk, Week 6",23%
same,HDL cholesterol levels,"[4]; 5 mg/kg/wk, Week 6",151 mg/dL
same,LDL cholesterol levels,"[4]; 5 mg/kg/wk, Week 6",36 mg/dL
same,Total cholesterol levels,"[4]; 5 mg/kg/wk, Week 6",202 mg/dL
same,Triglyceride levels,"[4]; 5 mg/kg/wk, Week 6",85 mg/dL
same,HDL cholesterol levels,"[4]; 15 mg/kg/wk, Week 0",86 mg/dL
same,LDL cholesterol levels,"[4]; 15 mg/kg/wk, Week 0",54 mg/dL
same,Total cholesterol levels,"[4]; 15 mg/kg/wk, Week 0",152 mg/dL
same,Triglyceride levels,"[4]; 15 mg/kg/wk, Week 0",47 mg/dL
same,% change in HDL levels compared to total cholesterol,"[4]; 15 mg/kg/wk, Week 3",26%
same,HDL cholesterol levels,"[4]; 15 mg/kg/wk, Week 3",141 mg/dL
same,LDL cholesterol levels,"[4]; 15 mg/kg/wk, Week 3",32 mg/dL
same,Total cholesterol levels,"[4]; 15 mg/kg/wk, Week 3",185 mg/dL
same,Triglyceride levels,"[4]; 15 mg/kg/wk, Week 3",48 mg/dL
same,% change in HDL levels compared to total cholesterol,"[4]; 15 mg/kg/wk, Week 6",42%
same,HDL cholesterol levels,"[4]; 15 mg/kg/wk, Week 6",164 mg/dL
same,LDL cholesterol levels,"[4]; 15 mg/kg/wk, Week 6",40 mg/dL
same,Total cholesterol levels,"[4]; 15 mg/kg/wk, Week 6",217 mg/dL
same,Triglyceride levels,"[4]; 15 mg/kg/wk, Week 6",85 mg/dL
same,HDL cholesterol levels,"[4]; 50 mg/kg/wk, Week 0",77 mg/dL
same,LDL cholesterol levels,"[4]; 50 mg/kg/wk, Week 0",59 mg/dL
same,Total cholesterol levels,"[4]; 50 mg/kg/wk, Week 0",145 mg/dL
same,Triglyceride levels,"[4]; 50 mg/kg/wk, Week 0",41 mg/dL
same,% change in HDL levels compared to total cholesterol,"[4]; 50 mg/kg/wk, Week 3",43%
same,HDL cholesterol levels,"[4]; 50 mg/kg/wk, Week 3",139 mg/dL
same,LDL cholesterol levels,"[4]; 50 mg/kg/wk, Week 3",33 mg/dL
same,Total cholesterol levels,"[4]; 50 mg/kg/wk, Week 3",184 mg/dL
same,Triglyceride levels,"[4]; 50 mg/kg/wk, Week 3",49 mg/dL
same,% change in HDL levels compared to total cholesterol,"[4]; 50 mg/kg/wk, Week 6",37%
same,HDL cholesterol levels,"[4]; 50 mg/kg/wk, Week 6",123 mg/dL
same,LDL cholesterol levels,"[4]; 50 mg/kg/wk, Week 6",38 mg/dL
same,Total cholesterol levels,"[4]; 50 mg/kg/wk, Week 6",170 mg/dL
same,Triglyceride levels,"[4]; 50 mg/kg/wk, Week 6",60 mg/dL
same,Percent inhibition of CETP activity,CETP activity [5]; Dose 1.5 mg/kg/wk,33%
same,Percent inhibition of CETP activity,CETP activity [5]; Dose 5 mg/kg/wk,59%
same,Percent inhibition of CETP activity,CETP activity [5]; Dose 15 mg/kg/wk,76%
same,Percent inhibition of CETP activity,CETP activity [5]; Dose 50 mg/kg/wk,77%
same,Percent inhibition of liver CETP mRNA expression,CETP mRNA,84%
same,Percent inhibition of plasma CETP protein levels,CETP protein,96%
"ISIS 141923: CCTTCCCTGAAGGTTCCTCC, 5-10-5 MOE gapmer, a control oligonucleotide which has no known murine target (sugars from the 5' end e5 d10 e5, backbone and methylation of C not given here) [reference compound]",HDL cholesterol levels,"[4]; 50 mg/kg/wk, Week 0",87 mg/dL
same,LDL cholesterol levels,"[4]; 50 mg/kg/wk, Week 0",54 mg/dL
same,Total cholesterol levels,"[4]; 50 mg/kg/wk, Week 0",153 mg/dL
same,Triglyceride levels,"[4]; 50 mg/kg/wk, Week 0",49 mg/dL
same,% change in HDL levels compared to total cholesterol,"[4]; 50 mg/kg/wk, Week 3",−17%
same,HDL cholesterol levels,"[4]; 50 mg/kg/wk, Week 3",115 mg/dL
same,LDL cholesterol levels,"[4]; 50 mg/kg/wk, Week 3",42 mg/dL
same,Total cholesterol levels,"[4]; 50 mg/kg/wk, Week 3",164 mg/dL
same,Triglyceride levels,"[4]; 50 mg/kg/wk, Week 3",58 mg/dL
same,% change in HDL levels compared to total cholesterol,"[4]; 50 mg/kg/wk, Week 6",−23%
same,HDL cholesterol levels,"[4]; 50 mg/kg/wk, Week 6",124 mg/dL
same,LDL cholesterol levels,"[4]; 50 mg/kg/wk, Week 6",47 mg/dL
same,Total cholesterol levels,"[4]; 50 mg/kg/wk, Week 6",180 mg/dL
same,Triglyceride levels,"[4]; 50 mg/kg/wk, Week 6",88 mg/dL
same,Percent inhibition of CETP activity,CETP activity [5]; Dose 50 mg/kg/wk,2%
